Assays:
[1] = test system: E. coli ATCC 25922 and S. aureus ATCC 29213; experiment: Bacterial growth delay, additional strains (Supplementary Fig. S1); format: cell-based, Escherichia coli; Staphylococcus aureus; conditions: E. coli ATCC 25922 and S. aureus ATCC 29213 compared with E. coli O78 and MRSA; MHB or DMEM + FCS; N = 2
Procedure: E. coli O78 (Zoetis Animal Health, Kalamazoo, MI, USA), E. coli ATCC 25922, Staphylococcus aureus ATCC 29213, and methicillin resistant Staphylococcus aureus (MRSA) (WKZ-2, human clinical isolate) were grown overnight from a glycerol stock in Mueller Hinton Broth (MHB) (Becton Dickinson, USA). Before use, bacteria were grown to mid-log phase in MHB for 2 hours at 37 °C, 200 RPM. Murine RAW264.7 macrophages (ATCC-TIB-71) were obtained from the American Type Culture Collection (ATCC, Manassas, VA, USA) and cultured in DMEM (41966-029; Thermo Fisher Scientific, Waltham, MA, USA) supplemented with 10% FCS (Bodinco B.V., Alkmaar, the Netherlands) (DMEM + FCS) at 37 °C, 5.0% CO2. […]
Peptides (0.63 to 40 μM) and bacteria mid-log cultures (2 * 10^6 CFU/ml) were prepared in MHB or DMEM + FCS and mixed (100 μl peptide + 100 μl bacterial culture) in a Bioscreen C analyzer plate (Oy Growth Curves Ab Ltd, Helsingfors, Finland). […] The OD was measured every 15 minutes using a wideband filter (450–580 nm) to measure bacterial growth. The time needed grow above an OD of 0.6 was determined for all concentrations. […]
E. coli ATCC 25922 and S. aureus ATCC 29213 (1x10^6 CFU/ml) were grown in MHB or DMEM+FCS for 16 hours under constant shak ing (200 RPM) in the presence of diﬀerent concentration of cathelicidins (0.31 µM, 0.63 µM, 1.25 µM, 2.5 µM, 5 µM, 10 µM, and 20 µM). The OD was measured ever y 15 minutes. […]

[2] = test system: S. aureus; experiment: MBC by plating wells without visible growth, S. aureus; format: cell-based, Staphylococcus aureus; conditions: S. aureus in DMEM; results not shown
Procedure: In order to compare our Cmax with MBC values, wells without visible bacterial growth were plated out on TSA plates and incubated o/n at 37 °C to determine the presence of viable bacteria.
The antimicrobial capacities were tested under the same conditions and expressed as growth delay instead of the more classical MIC/MBC determination using broth dilution assays. […] The fact that DMEM medium makes S. aureus susceptible to PR-39 is surprising since this peptide is thought to require active uptake by the SbmA transporter, only present in Gram – bacteria. The results obtained in this work, might indicate that the peptide possibly switches to a different mechanism of action with initially a bacteriostatic effect, but more thorough studies are required to elucidate the details of these initial observations.

[3] = test system: RAW264.7 cells; experiment: Cytotoxicity (WST-1 mitochondrial activity, PI staining); format: cell-based, murine; conditions: 24 h, peptide 0.08-20 μM; WST-1 and PI staining
Procedure: WST-1 reagent was obtained from Roche (Basel, Switzerland). RAW264.7 cells were incubated with cathelicidins for 24 h, after which the supernatant was removed and replaced with 10% WST-1 reagent in culture medium. After 20 minutes, absorbance was measured at 450 nm with a FLUOstar Omega microplate reader (BMG Labtech GmbH, Ortenberg, Germany) and was corrected for absorbance at 630 nm. Non-treated control cells were defined as 100% mitochondrial activity.
In addition, cells were detached after peptide exposure and stained with propidium iodide (PI) (BD bioscience, San Jose, CA, USA). Percentages of PI positive (i.e. dead) cells were determined with flow cytometry (BD FACSCanto II flow cytometer (BD Biosciences)) and analyzed with FlowJo software (Ashland, OR, USA). […]
Supplementary Figure 3: Cytotoxicity of cathelicidins on RAW264.7 cells
(A) RAW264.7 cells were incubated for 24 hours with diﬀerent cathelicidins (0.08 µM, 0.31 µM, 1.25 µM, 5 µM, and 20 µM), after which they were incubated with WST-1 reagent for 20 minutes to measure the mitochondrial activity. No peptide control was set to 100% mitochondrial activity. Dotted line represents 80% mitochondrial activity. Results are presented as average +/- SEM (N = 4).
(B) RAW264.7 cells were incubated with diﬀerent cathelicidins (0.31 µM, 1.25 µM, 5 µM, and 20 µM). Cells were stained for PI to detect dead cells. […]

Row | Substance | Fold difference in Cmax with other bacterial strains [1] | Fold higher MBC than Cmax [2] [fold] | Cytotoxicity to RAW264.7 cells, in words [3]
1 | RRRPRPPYLPRPRPPPFFPPRLPPRIPPGFPPRFPPRFP [PR-39, porcine proline-rich cathelicidin forming a polyproline helix, 39 residues, charge +10] | 8–16 fold | 16 | 
2 | Ac-GRFRRLRKKTRKRLKKIGKVLKWIPPIVGSIPLGCG [PMAP-36, porcine α-helical cathelicidin, N-acetylated, 36 residues, charge +13] |  |  | some cytotoxicity, but only at the highest concentration
